Consider one molecule from ChEMBL document CHEMBL3525949, “Role of organic anion-transporting polypeptides for cellular mesalazine (5-aminosalicylic acid) uptake” (Drug Metab Dispos, 2011).

Broadly, the Vmax is the rate approached at saturating substrate. The Km is the concentration of substrate that gives half-maximal velocity.

Format in all cases: ADME, cell-based
Data set [1] can be described thus: Drug uptake in human SCLO1B1*15 mutant expressed HEK293 cells assessed as net uptake measured per mg of protein.
Data set [2] has as its target T1, Solute carrier organic anion transporter family member 1A2 (Homo sapiens, UniProt P46721).
T1 sequence (P46721 whole entry): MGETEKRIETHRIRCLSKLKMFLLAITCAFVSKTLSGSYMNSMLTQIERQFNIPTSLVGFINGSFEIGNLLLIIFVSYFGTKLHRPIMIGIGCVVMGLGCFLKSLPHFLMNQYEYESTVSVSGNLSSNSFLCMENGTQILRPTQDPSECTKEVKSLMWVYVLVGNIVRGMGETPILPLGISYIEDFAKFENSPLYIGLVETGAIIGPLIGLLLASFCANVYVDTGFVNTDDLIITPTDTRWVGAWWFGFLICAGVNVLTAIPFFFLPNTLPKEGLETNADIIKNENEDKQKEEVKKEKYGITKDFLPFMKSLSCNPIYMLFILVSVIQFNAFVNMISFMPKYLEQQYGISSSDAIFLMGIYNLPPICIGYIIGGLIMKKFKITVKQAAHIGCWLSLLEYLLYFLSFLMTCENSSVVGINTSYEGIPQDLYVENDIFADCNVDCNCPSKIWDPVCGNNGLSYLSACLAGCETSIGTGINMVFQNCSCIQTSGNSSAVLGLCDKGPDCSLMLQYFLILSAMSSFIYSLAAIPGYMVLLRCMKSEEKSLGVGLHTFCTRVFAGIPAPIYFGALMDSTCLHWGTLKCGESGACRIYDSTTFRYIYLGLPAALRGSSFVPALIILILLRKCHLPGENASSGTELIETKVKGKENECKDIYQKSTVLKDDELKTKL
Description: Inhibition of human OATP1A2 expressed HEK293 cells assessed as inhibition of [3H]sulfobromophthalein uptake by liquid scintillation counting.

In another data set the test system is SCLO1B1*1a mutant. Kind of data set: Drug uptake in human SCLO1B1*1a mutant expressed HEK293 cells assessed as net uptake. Particulars: HEK293 cells expressing human SCLO1B1*1a mutant.
For a further data set, the system named is SCLO1B1*1b mutant. Description: Drug uptake in human SCLO1B1*1b mutant expressed HEK293 cells assessed as net uptake. Particulars: HEK293 cells expressing human SCLO1B1*1b mutant.
A further data set concerns SCLO1B1*15 mutant. Kind of data set: Drug uptake in human SCLO1B1*15 mutant expressed HEK293 cells assessed as net uptake. Conditions: HEK293 cells expressing human SCLO1B1*15 mutant.
Another data set relates to SCLO1B1*5 mutant. Description: Drug uptake in human SCLO1B1*5 mutant expressed HEK293 cells assessed as net uptake. Particulars: HEK293 cells expressing human SCLO1B1*5 mutant.
The target in a further data set is T2, OATP2B1 (Homo sapiens, UniProt O94956).
T2 sequence (O94956 whole entry): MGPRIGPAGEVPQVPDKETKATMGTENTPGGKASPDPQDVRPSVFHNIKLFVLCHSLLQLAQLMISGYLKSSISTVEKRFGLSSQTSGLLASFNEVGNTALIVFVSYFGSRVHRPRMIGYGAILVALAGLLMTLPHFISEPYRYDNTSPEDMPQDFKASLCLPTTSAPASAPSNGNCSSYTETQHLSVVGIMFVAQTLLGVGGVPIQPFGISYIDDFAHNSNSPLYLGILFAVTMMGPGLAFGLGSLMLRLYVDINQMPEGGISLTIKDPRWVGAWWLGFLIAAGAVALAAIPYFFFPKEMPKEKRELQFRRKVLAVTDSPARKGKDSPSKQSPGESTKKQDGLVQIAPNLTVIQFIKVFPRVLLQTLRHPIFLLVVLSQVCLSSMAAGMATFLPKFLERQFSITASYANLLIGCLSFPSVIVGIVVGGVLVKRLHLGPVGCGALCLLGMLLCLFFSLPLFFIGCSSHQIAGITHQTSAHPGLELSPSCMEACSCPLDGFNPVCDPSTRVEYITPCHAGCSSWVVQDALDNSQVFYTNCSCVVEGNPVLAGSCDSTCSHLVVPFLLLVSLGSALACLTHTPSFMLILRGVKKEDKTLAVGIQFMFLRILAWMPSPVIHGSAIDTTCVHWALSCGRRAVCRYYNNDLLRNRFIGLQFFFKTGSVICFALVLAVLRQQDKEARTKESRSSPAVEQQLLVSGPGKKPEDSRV
Description: Drug uptake in human OATP2B1 expressed HEK293 cells at 20 uM relative to control cells. Conditions: HEK293 cells expressing human OATP2B1, read-out: FC.

In data set [3] the target is T3, Solute carrier organic anion transporter family member 1B1 (Homo sapiens, UniProt Q9Y6L6).
T3 sequence (Q9Y6L6 whole entry): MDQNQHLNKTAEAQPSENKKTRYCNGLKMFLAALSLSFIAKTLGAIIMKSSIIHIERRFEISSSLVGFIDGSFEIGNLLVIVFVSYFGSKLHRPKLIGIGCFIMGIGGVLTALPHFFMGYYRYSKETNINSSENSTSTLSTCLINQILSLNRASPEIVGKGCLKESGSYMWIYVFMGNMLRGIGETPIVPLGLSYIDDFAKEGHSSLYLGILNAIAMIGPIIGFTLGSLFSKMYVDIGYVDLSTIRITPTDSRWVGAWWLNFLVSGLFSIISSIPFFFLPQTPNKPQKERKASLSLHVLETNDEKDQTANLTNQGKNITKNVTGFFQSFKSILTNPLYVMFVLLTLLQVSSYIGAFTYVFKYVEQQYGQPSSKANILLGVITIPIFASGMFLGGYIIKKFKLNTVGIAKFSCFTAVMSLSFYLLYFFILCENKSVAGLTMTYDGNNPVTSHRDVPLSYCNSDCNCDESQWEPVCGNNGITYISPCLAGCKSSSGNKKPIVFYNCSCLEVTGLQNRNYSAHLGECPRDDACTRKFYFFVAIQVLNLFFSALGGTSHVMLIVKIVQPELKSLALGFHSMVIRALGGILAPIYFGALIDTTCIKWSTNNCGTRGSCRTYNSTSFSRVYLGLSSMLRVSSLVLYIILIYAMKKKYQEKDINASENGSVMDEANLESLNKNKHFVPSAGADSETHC
Description: Inhibition of human OATP1B1 expressed HEK293 cells assessed as inhibition of [3H]sulfobromophthalein uptake by liquid scintillation counting.

A further data set deals with T4, OATP1B1 (Homo sapiens, UniProt Q9Y6L6).
T4 sequence (Q9Y6L6 whole entry): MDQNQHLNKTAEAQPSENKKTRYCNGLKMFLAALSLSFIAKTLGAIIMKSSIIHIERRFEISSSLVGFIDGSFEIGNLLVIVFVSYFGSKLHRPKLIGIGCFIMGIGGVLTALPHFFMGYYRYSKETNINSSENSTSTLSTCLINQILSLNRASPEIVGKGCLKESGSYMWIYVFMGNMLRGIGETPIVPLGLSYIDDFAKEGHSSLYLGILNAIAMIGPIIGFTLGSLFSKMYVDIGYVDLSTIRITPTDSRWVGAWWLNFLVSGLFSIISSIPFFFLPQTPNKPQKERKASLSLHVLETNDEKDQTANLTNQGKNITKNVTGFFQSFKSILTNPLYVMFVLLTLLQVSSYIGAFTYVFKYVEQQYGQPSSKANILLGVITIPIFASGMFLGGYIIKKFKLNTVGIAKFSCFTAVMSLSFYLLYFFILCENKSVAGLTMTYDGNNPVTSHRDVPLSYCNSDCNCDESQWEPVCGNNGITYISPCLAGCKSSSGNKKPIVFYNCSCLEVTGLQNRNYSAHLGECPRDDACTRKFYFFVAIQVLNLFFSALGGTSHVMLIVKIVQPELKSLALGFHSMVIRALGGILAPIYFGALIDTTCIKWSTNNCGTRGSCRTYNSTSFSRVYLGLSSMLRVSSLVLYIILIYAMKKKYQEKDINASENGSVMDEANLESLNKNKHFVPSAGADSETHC
Description: Drug uptake in human OATP1B1 expressed HEK293 cells at 20 uM relative to control cells. Particulars: HEK293 cells expressing human OATP1B1, read-out: FC.

For data set [4], the target named is T5, Solute carrier organic anion transporter family member 1B3 (Homo sapiens, UniProt Q9NPD5).
T5 sequence (Q9NPD5 whole entry): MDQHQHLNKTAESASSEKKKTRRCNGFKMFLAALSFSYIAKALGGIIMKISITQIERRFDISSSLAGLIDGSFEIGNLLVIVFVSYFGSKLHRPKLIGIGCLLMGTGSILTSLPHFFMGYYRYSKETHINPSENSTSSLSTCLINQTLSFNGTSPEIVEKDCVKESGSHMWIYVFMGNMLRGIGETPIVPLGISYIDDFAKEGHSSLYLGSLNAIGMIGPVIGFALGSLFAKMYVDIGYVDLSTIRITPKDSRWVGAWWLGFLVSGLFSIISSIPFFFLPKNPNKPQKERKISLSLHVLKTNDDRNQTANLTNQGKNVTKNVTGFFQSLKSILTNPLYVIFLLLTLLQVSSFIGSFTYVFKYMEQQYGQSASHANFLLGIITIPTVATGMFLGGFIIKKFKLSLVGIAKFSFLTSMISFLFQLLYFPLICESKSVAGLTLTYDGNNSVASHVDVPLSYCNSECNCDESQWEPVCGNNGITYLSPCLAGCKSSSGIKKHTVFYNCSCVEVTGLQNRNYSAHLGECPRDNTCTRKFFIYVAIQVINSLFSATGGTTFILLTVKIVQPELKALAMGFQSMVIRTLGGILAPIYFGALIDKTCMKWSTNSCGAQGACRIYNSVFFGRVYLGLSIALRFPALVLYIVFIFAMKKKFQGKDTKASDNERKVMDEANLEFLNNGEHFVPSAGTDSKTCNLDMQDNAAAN
Kind of data set: Drug uptake in human OATP1B3 expressed HEK293 cells assessed as net uptake measured per mg of protein.

The nature of data set [5]: Drug uptake in human SCLO1B1*1a mutant expressed HEK293 cells assessed as net uptake measured per mg of protein.
The target of data set [6] is T5, Solute carrier organic anion transporter family member 1B3. Kind of data set: Inhibition of human OATP1B3 expressed HEK293 cells assessed as inhibition of [3H]sulfobromophthalein uptake by liquid scintillation counting.
Data set [7] concerns the target T6, Solute carrier organic anion transporter family member 2B1 (Homo sapiens, UniProt O94956).
T6 sequence (O94956 whole entry): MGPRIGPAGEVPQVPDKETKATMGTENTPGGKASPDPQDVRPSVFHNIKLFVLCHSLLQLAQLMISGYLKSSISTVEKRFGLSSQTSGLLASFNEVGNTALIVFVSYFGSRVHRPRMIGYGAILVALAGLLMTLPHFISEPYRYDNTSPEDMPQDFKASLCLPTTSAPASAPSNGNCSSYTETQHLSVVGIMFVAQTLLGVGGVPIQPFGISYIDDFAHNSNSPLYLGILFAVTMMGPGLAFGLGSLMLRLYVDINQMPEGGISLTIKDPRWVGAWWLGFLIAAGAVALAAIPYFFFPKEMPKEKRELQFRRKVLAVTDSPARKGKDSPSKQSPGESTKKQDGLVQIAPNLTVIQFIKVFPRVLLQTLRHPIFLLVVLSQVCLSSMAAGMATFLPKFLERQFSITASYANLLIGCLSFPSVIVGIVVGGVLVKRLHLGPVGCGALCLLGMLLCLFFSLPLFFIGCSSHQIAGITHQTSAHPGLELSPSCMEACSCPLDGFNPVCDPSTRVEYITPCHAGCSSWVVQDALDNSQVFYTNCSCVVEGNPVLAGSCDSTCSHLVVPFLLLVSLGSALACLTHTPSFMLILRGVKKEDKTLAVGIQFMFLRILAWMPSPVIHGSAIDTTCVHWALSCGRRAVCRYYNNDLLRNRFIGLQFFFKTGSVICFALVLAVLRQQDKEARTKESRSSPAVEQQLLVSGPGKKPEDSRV
Kind of data set: Inhibition of human OATP2B1 expressed HEK293 cells assessed as inhibition of [3H]sulfobromophthalein uptake by liquid scintillation counting.

The nature of data set [8]: Drug uptake in human SCLO1B1*5 mutant expressed HEK293 cells assessed as net uptake measured per mg of protein.
Data set [9] in a line: Drug uptake in human SCLO1B1*1b mutant expressed HEK293 cells assessed as net uptake measured per mg of protein.
Data set [10] deals with T7, OATP1B3 (Homo sapiens, UniProt Q9NPD5).
T7 sequence (Q9NPD5 whole entry): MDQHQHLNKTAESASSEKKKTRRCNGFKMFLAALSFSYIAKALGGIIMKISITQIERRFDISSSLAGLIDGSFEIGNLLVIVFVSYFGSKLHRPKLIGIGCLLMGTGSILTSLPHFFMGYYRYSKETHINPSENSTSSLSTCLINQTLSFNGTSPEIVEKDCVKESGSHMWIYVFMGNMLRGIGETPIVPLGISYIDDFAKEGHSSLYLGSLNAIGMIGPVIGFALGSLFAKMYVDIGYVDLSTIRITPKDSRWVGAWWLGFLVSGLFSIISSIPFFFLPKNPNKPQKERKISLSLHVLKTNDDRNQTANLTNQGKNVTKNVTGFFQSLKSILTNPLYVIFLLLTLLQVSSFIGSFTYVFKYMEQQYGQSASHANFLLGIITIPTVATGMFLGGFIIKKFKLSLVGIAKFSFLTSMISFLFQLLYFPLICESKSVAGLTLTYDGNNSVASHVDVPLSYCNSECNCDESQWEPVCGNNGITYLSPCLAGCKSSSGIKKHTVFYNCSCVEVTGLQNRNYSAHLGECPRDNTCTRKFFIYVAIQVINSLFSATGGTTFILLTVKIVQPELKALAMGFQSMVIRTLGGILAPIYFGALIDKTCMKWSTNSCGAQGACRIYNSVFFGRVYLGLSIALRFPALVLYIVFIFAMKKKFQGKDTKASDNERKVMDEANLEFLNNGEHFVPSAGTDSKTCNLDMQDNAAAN
Description: Drug uptake in human OATP1B3 expressed HEK293 cells assessed as net uptake. Conditions: HEK293 cells expressing human OATP1B3.

For data set [11], the target named is T7, OATP1B3. Description: Drug uptake in human OATP1B3 expressed HEK293 cells at 20 uM relative to control cells. Conditions: HEK293 cells expressing human OATP1B3, read-out: FC.

In the case of `Nc1ccc(O)c(C(=O)O)c1` [MESALAMINE], the Vmax in data set [1] was 9.3 pmol/min; in [4], 85.1 pmol/min; in [5], 28.3 pmol/min; in [8], 6.1 pmol/min; in [9], 3.8 pmol/min. The “inhibition (INH)” value in data set [2], in data set [3], in data set [6] and in data set [7] was “Dose-dependent effect” each time. For the same molecule, the Km stood at 55.1 µM in the data set on SCLO1B1*1a mutant; 16.3 µM with SCLO1B1*1b mutant; 32.4 µM in the data set with SCLO1B1*15 mutant; 24.3 µM in the data set with SCLO1B1*5 mutant; 77.4 µM on OATP1B3 [10]. The uptake ratio at 20 µM at OATP2B1 was found to be 2; on OATP1B1, 2.7; at OATP1B3 [11], 2.9.
